We go through three molecules from article PMC8291583, “Design, synthesis, and evaluation of 3,7-substituted coumarin derivatives as multifunctional Alzheimer’s disease agents” (Journal of Enzyme Inhibition and Medicinal Chemistry, 2021).

Structures are written as SMILES. pIC50: −log10 of the molar value. Like-named read-outs stand apart in the source and are kept apart here.

Experiment [1] addresses Electrophorus electricus AChE (Electrophorus electricus, UniProt O42275). Briefly: biochemical. As for the experimental part: (§1) Cholinesterase activity is determined using a modified colorimetric method first described by Ellman[40]. […] The stock was then further diluted by factors of ten to produce solutions of 1 mM, 100 µM, 10 µM, 1 µM, and 0.1 µM which corresponds to concentrations of 100 µM, 10 µM, 1 µM, 0.1 µM, and 0.01 µM in the final reaction mixture. The test concentrations were stored in the refrigerator until the day of the assay. Trisma HCl buffer (50 mM, adjusted to pH 8 with 2 N NaOH) was prepared as the buffer and used to prepare enzyme stock solution (22 U/ml for Electrophorus electricus AChE and 12 U/ml BuChE from equine serum), 15 mM acetylthiocholine iodide, 15 mM S-butyrylthiocholine iodide and 1.5 mM DTNB (Ellman’s reagent). The enzyme stock solution was stabilised with 1% bovine serum albumin and stored in aliquots at −80 °C. A clear, flat bottom 96 well plate was used to perform the experiments with each concentration performed in triplicate. Prior to the assay the background absorbance for each compound at the different test concentrations was measured and accounted for when reading the final absorbance. […] Following this, 30 µl of the substrate was added to each well simultaneously using a multi pipette. […] A one-sample t-test was performed on the data to test for statistical significance.

A further experiment deals with T1, BuChE from equine serum (Equus caballus, UniProt P81908).
T1 construct: 12 U/ml BuChE from equine serum; from tissue; host or cells: equine serum
Kind of experiment: biochemical. As for the experimental part:
as §1

For another experiment, the target named is recombinant human MAO-B (Homo sapiens, UniProt P27338). Briefly: MAO-B fluorometric assay (kynuramine). The format is biochemical. As to the method:
. The stock was then further diluted by factors of ten to produce solutions of 1 mM, 100 µM, 10 µM, 1 µM, and 0.1 µM which would correspond to concentrations of 100 µM, 10 µM, 1 µM, 0.1 µM, and 0.01 µM in the final reaction mixture. A potassium phosphate buffer ([…] 100 mM, pH 7.4, 0.9% w/v NaCl) was prepared and refrigerated until further use. The enzyme stock solutions were prepared by dissolving 2.5 mg of enzyme in 33.33 ml of phosphate buffer to produce stock solutions of 0.075 mg/ml which were stored in aliquots at −80 °C until use. […]. The substrate was prepared by dissolving kynuramine in potassium buffer and was prepared as two separate concentrations; […]. The fresh substrate was prepared on the day of the assay. The assay was carried out in 2 ml Eppendorf vials. […] Following this, 25 µl of the enzyme stock were added to each vial in 10 s intervals and the vials were incubated at 37 °C for 10 min. After this time period 15 µl of kynuramine (750 µM for MAO-A and 500 µM for MAO-B) was added at 10 s intervals and further incubated for 20 min. To stop the reaction at the end of this time 150 hx00B5;l of 2 N NaOH was added and the mixture was shaken. Using a micropipette 80 hx00B5;l of the mixture was transferred to a well in a black 96 well plate. The plate was placed in the fluorescent plate reader and read at an excitation/emission wavelength of 310 nm/410 nm. Each assay was run in triplicate and the data were analysed with Graph Pad Prism 8 software (San Diego, USA).
The MAO inhibitory activity of the compounds was assessed using a fluorometric assay with recombinant human MAO-A and human MAO-B enzymes. […].

Experiment [2] has as its system MPP+-compromised SH-SY5Y neuroblastoma cells. The format is cell-based, human. As to the method: SH-SY5Y cells were seeded onto a 96-well plate in a growth medium at a density of 10,000 cells/well. Cells were pre-treated with test compounds at a concentration of 10 µM and thereafter 2000 µM MPP^+ following a 2-h incubation period. Afterwards, cells were incubated for 24 h and MTT colorimetric assay was used to measure cell viability relative to untreated control. To determine the data’s statistical significance, the One-way ANOVA Turkey’s multiple comparison test was conducted on all experimental replicates using GraphPad Prism® 8 (San Diego, USA).
The SH-SY5Y cells were pre-treated with 10 µM of the test compounds for 2 h followed by the addition of 2000 µM of MPP^+.

For a further experiment, the target named is T2, recombinant human MAO-A (Homo sapiens, UniProt P21397).
T2 sequence (P21397 1-527): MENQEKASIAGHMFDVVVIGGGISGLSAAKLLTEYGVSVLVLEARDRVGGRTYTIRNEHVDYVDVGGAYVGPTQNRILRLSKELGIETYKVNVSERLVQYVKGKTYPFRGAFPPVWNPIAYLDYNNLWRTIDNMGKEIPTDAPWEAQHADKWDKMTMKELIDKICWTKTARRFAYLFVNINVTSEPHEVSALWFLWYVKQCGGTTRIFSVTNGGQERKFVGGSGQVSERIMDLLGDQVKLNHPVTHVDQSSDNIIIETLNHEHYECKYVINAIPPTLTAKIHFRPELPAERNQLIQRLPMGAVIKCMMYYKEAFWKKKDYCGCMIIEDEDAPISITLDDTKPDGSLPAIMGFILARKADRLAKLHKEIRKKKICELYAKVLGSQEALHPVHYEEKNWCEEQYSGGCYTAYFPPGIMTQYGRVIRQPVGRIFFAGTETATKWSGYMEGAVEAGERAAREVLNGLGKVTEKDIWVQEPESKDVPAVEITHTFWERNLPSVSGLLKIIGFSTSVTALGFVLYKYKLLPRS
Kind of experiment: biochemical. As to the method:
The stock was then further diluted by factors of ten to produce solutions of 1 mM, 100 µM, 10 µM, 1 µM, and 0.1 µM which would correspond to concentrations of 100 µM, 10 µM, 1 µM, 0.1 µM, and 0.01 µM in the final reaction mixture. A potassium phosphate buffer ([…] 100 mM, pH 7.4, 0.9% w/v NaCl) was prepared and refrigerated until further use. The enzyme stock solutions were prepared by dissolving 2.5 mg of enzyme in 33.33 ml of phosphate buffer to produce stock solutions of 0.075 mg/ml which were stored in aliquots at −80 °C until use. Once in the final reaction mixture, this enzyme solution will have a concentration of 0.0075 mg/ml. […] The fresh substrate was prepared on the day of the assay. The assay was carried out in 2 ml Eppendorf vials. […] Following this, 25 µl of the enzyme stock were added to each vial in 10 s intervals and the vials were incubated at 37 °C for 10 min. […] To stop the reaction at the end of this time 150 hx00B5;l of 2 N NaOH was added and the mixture was shaken. Using a micropipette 80 hx00B5;l of the mixture was transferred to a well in a black 96 well plate. The plate was placed in the fluorescent plate reader and read at an excitation/emission wavelength of 310 nm/410 nm. Each assay was run in triplicate and the data were analysed with Graph Pad Prism 8 software (San Diego, USA).
The MAO inhibitory activity of the compounds was assessed using a fluorometric assay with recombinant human MAO-A and human MAO-B enzymes.

The mark [3] stands for this setting: Ellman method, 25 °C, pH 8, read-out: AChE IC50.
Setting [4] is: Ellman method, 25 °C, pH 8, read-out: BuChE IC50.
Where [5] appears, read: kynuramine 30 µM, 37 °C, read-out: MAO-B IC50.
The mark [6] stands for this setting: 10 µM compound, 2 h pre-treatment, 2000 µM MPP+, 24 h, SH-SY5Y.
Where [7] appears, read: kynuramine 45 µM, 37 °C, read-out: MAO-A IC50.

Chain of recombinant human MAO-B (P27338 whole entry): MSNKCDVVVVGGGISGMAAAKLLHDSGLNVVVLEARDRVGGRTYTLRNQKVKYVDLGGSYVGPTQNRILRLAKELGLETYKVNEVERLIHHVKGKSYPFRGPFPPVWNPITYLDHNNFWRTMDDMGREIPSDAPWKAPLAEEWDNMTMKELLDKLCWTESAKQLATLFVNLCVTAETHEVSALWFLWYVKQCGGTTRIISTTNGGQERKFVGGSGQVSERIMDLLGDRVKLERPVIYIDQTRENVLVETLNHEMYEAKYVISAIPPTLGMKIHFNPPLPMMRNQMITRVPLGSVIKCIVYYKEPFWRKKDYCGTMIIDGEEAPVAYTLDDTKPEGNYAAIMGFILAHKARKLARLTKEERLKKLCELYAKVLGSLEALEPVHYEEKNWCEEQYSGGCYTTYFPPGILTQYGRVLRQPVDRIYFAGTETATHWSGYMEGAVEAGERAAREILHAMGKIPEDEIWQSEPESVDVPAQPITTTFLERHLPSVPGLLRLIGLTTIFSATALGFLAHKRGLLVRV
T1 sequence (P81908 whole entry): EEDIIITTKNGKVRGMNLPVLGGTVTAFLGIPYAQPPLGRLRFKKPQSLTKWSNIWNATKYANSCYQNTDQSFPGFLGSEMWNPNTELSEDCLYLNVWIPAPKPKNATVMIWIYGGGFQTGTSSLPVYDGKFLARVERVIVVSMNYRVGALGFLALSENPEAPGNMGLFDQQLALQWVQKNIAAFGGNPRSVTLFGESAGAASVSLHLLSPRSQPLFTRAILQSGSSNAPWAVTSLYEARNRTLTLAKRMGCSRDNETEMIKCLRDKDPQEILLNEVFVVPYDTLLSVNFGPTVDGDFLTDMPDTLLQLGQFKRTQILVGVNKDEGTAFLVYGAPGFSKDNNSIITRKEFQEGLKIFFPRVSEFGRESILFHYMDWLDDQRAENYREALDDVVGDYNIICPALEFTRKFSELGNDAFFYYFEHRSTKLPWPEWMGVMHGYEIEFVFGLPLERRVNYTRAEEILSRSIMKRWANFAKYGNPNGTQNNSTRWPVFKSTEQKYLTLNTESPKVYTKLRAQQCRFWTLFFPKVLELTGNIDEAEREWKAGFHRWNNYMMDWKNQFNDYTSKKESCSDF
Chain of Electrophorus electricus AChE (O42275 24-633): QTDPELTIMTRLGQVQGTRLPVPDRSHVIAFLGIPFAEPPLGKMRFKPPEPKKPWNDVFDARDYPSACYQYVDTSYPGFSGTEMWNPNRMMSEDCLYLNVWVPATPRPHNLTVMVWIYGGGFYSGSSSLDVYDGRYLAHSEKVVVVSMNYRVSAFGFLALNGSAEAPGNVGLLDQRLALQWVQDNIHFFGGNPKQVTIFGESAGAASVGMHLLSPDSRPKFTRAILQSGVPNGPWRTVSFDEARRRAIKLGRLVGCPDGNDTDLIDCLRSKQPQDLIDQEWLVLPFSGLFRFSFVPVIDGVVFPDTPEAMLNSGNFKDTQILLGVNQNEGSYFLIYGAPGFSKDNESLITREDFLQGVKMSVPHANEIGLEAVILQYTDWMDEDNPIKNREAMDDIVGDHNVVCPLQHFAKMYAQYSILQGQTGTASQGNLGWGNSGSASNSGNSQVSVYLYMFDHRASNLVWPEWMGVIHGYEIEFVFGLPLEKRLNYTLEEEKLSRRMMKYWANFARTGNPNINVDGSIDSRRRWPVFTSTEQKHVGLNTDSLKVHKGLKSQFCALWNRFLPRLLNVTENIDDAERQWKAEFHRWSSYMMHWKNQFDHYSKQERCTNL

Consider `Cc1cc2ccc(O)cc2oc1=O` [Compound 1, 7-hydroxy-3-methyl-2H-1-benzopyran-2-one], for which the pIC50 (in general, −log10 of the IC50, conventionally taken in molar units) in experiment [1] (AChE IC50) is below 4.00; on BuChE from equine serum it was 4.69; on recombinant human MAO-B, 4.79; at recombinant human MAO-A (MAO-A IC50), 4.48. On recombinant human MAO-B, the “SI MAO-B (MAO-B selectivity index = IC50(MAO-A)/IC50(MAO-B))” value was 2.04. In addition, in experiment [2], the “MPP+ neuroprotection (difference in percentage cell viability vs MPP+ only treated cells)” value was determined as 26.24%.

Consider `Cc1cc2ccc(OCCc3ccccc3)cc2oc1=O` [Compound 2, 3-methyl-7-(2-phenylethoxy)-2H-1-benzopyran-2-one], for which the pIC50 in experiment [1] (setting [3]) is below 4.00; at BuChE from equine serum (setting [4]), below 4.00; on recombinant human MAO-B (setting [5]), 7.85; on recombinant human MAO-A (setting [7]), 6.18. Further, the “SI MAO-B (MAO-B selectivity index = IC50(MAO-A)/IC50(MAO-B))” value at recombinant human MAO-B turned out to be 47.7. In addition, in experiment [2] (setting [6]), the “MPP+ neuroprotection (difference in percentage cell viability vs MPP+ only treated cells)” value is 24.85%.

Turning to `CCN(CC)C(=O)Oc1ccc2cc(C)c(=O)oc2c1` [Compound 3, 3-methyl-2-oxo-2H-1-benzopyran-7-yl-diethylcarbamate], the pIC50 in experiment [1] (setting [3]) is below 4.00; at BuChE from equine serum (setting [4]), below 4.00; at recombinant human MAO-B (setting [5]), 6.30; at recombinant human MAO-A (setting [7]), 5.55. Besides, on recombinant human MAO-B, the “SI MAO-B (MAO-B selectivity index = IC50(MAO-A)/IC50(MAO-B))” value is reported as 5.67. Moreover, the “MPP+ neuroprotection (difference in percentage cell viability vs MPP+ only treated cells)” value in experiment [2] (setting [6]) is 15.59%.
